A short description of series [1]: Drug excretion in arrhythmia patient (7 patients) assessed as unchanged compound level in urine at 400 mg, iv after 4 days 400 mg, po dose administered followed continuous oral therapy with 200 mg, tid measured 2 hrs after iv drug challenge by HPLC analysis. The following applies: human.
The nature of series [2]: Drug uptake in arrhythmia patient (7 patients) serum at 400 mg, iv after 4 days 400 mg, po dose administered followed continuous oral therapy with 200 mg, tid measured 2 hrs after iv drug challenge by HPLC analysis. The following applies: human.
The nature of series [3]: Tmax in arrhythmia patient (7 patients) at 400 mg, iv after 4 days 400 mg, po dose administered followed continuous oral therapy with 200 mg, tid by HPLC analysis. The following applies: human, in vivo.
A short description of series [4]: Drug concentration in arrhythmia patient (7 patients) serum at 400 mg, iv after 4 days 400 mg, po dose administered followed continuous oral therapy with 200 mg, tid measured after 48 hrs by HPLC analysis. The following applies: human.
Series [5] is described as follows: Drug concentration in arrhythmia patient (7 patients) serum at 400 mg, iv after 4 days 400 mg, po dose administered followed continuous oral therapy with 200 mg, tid measured after 1 week by HPLC analysis. The following applies: human.
Series [6] in a line: Drug concentration in arrhythmia patient (7 patients) serum at 400 mg, iv after 4 days 400 mg, po dose administered followed continuous oral therapy with 200 mg, tid measured after 1 month by HPLC analysis. The following applies: human.
The nature of series [7]: Drug concentration in arrhythmia patient (7 patients) serum at 400 mg, iv after 4 days 400 mg, po dose administered followed continuous oral therapy with 200 mg, tid measured after 24 hrs by HPLC analysis. The following applies: human.

For orientation: Tmax means the time at which the peak concentration occurs.

For `CCCCc1oc2ccccc2c1C(=O)c1cc(I)c(OCCN(CC)CC)c(I)c1` [AMIODARONE], the concentration at 2 h came out at 100 ng/mL in series [1] and 2000 ng/mL in series [2]. Besides, in series [3], the Tmax at 96 h worked out at 7.3 h. This compound registered a concentration at 48 h in series [4] of 760 ng/mL. For the same compound, the concentration at 1 week in series [5] came to 1180 ng/mL. The compound further had a concentration at 96 h in series [6] of 1560 ng/mL. Moreover, the concentration at 24 h in series [7] came out at 610 ng/mL.

The record behind these values is ChEMBL document CHEMBL3785063 (Eur J Clin Pharmacol, 1981).
